# Data from patent US20210395239A1 (Hoffmann-La Roche Inc., priority 2018, published 2021).
# Target: T1, human TLR8 (Homo sapiens, UniProt Q9NR97)
# T1 construct: host or cells: HEK293 (HEK-Blue hTLR8)
# T1 sequence (Q9NR97 27-1041): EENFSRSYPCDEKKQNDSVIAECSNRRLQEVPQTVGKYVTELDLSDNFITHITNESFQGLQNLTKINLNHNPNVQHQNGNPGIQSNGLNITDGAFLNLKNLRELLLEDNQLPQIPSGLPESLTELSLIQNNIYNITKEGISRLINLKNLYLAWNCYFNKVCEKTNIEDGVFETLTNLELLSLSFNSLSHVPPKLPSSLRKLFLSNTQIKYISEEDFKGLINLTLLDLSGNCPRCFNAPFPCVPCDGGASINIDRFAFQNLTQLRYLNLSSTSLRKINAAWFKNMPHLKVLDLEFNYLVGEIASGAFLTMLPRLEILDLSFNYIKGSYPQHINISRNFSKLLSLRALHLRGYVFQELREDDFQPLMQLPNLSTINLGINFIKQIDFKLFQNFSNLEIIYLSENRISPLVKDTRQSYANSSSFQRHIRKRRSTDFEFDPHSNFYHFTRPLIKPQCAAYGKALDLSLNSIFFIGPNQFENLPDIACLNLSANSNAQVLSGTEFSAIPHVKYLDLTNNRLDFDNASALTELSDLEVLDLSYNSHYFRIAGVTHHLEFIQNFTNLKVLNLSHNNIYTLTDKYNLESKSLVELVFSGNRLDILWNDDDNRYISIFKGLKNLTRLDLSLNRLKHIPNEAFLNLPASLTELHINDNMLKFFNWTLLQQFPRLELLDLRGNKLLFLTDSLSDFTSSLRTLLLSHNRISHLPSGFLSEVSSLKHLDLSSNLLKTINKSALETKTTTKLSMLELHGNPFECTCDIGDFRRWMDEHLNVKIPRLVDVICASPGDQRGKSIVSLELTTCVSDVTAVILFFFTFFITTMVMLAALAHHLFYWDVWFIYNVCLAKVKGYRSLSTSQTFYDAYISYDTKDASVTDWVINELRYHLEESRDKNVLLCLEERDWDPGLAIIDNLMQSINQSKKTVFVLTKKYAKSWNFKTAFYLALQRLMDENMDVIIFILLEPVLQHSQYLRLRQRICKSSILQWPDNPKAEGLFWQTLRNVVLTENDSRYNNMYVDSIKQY
# Assay: HEK293-Blue-hTLR-8 cells assay (SEAP reporter, R848 stimulation)
# Format: cell-based
# Settings: HEK293-Blue-hTLR8 cells, R848, 20 hrs; read-out: HEK/hTLR8 IC50
# Outline: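 Antagonism read as reduced R848-induced SEAP reporter secretion, detected by QUANTI-Blue absorbance at 620–655 nm after 2 h. Reporter cells were exposed to compound dilutions in DMEM/10% FBS, 1% DMSO, for 20 h at 37° C.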
row,Compound,IC50 [nM]
1,"CO[C@H]1CN(c2nccc(N3CCN(C[C@H]4CN(c5ccc(C#N)c6ncccc56)C[C@@H](C)O4)CC3)n2)C[C@@H]1N [Example 26, 5-[(2S,6R)-2-[[4-[2-trans-(3-amino-4-methoxy-pyrrolidin-1-yl)pyrimidin-4-yl]piperazin-1-yl]methyl]-6-methyl-morpholin-4-yl]quinoline-8-carbonitrile]",3
2,"COC1CN(c2nccc(N3CCN(C[C@H]4CN(c5ccc(C#N)c6ncccc56)C[C@@H](C)O4)CC3)n2)C[C@H]1N (stereo in doubt) [Example 52, 5-[(2S,6R)-2-[[4-[2-[(3R,4R)-3-amino-4-methoxy-pyrrolidin-1-yl]pyrimidin-4-yl]piperazin-1-yl]methyl]-6-methyl-morpholin-4-yl]quinoline-8-carbonitrile]",3
3,"Cc1cc(N2CCN(C[C@H]3CN(c4ccc(C#N)c5ncccc45)C[C@@H](C)O3)CC2)nc(N2CC(N)C(F)C2)n1 (stereo in doubt) [Example 54, 5-[(2S,6R)-2-[[4-[2-[(3S,4R)-3-amino-4-fluoro-pyrrolidin-1-yl]-6-methyl-pyrimidin-4-yl]piperazin-1-yl]methyl]-6-methyl-morpholin-4-yl]quinoline-8-carbonitrile]",3
4,"C[C@@H]1CN(c2ccc(C#N)c3ncccc23)C[C@H](CN2CCN(c3cccc(C4CNCCO4)c3)CC2)O1 (stereo partly drawn) [Example 62, 5-[(2R,6S)-2-methyl-6-[[4-(3-morpholin-2-ylphenyl)piperazin-1-yl]methyl]-morpholin-4-yl]quinoline-8-carbonitrile]",14
5,"C[C@@H]1CN(c2ccc(C#N)n3ncc(F)c23)C[C@H](CN2CCN(c3ccc(C[C@@H]4CNCCO4)cc3)CC2)O1 [Example 186, 3-fluoro-4-[(2R,6S)-2-methyl-6-[[4-[4-[[(2R)-morpholin-2-yl]methyl]phenyl]piperazin-1-yl]methyl]morpholin-4-yl]pyrazolo[1,5-a]pyridine-7-carbonitrile]",23
6,"Cc1cc(N2CCN(C[C@H]3CN(c4ccc(C#N)c5ncccc45)C[C@@H](C)O3)CC2)nc(N2CC(N)C(F)(F)C2)n1 (stereo partly drawn) [Example 63, 5-[(2S,6R)-2-[[4-[2-(4-amino-3,3-difluoro-pyrrolidin-1-yl)-6-methyl-pyrimidin-4-yl]piperazin-1-yl]methyl]-6-methyl-morpholin-4-yl]quinoline-8-carbonitrile]",13
7,"COC1CN(c2ccc(C3CN(C[C@H]4CN(c5cc(=O)n(C)c6ncccc56)C[C@@H](C)O4)C3)cc2)C[C@H]1N (stereo in doubt) [Example 172, 4-[(2S,6R)-2-[[3-[4-[(3R,4R)-3-amino-4-methoxy-pyrrolidin-1-yl]phenyl]azetidin-1-yl]methyl]-6-methyl-morpholin-4-yl]-1-methyl-1,8-naphthyridin-2-one]",93
8,"C[C@@H]1CN(c2ccc(C#N)n3ncc(F)c23)C[C@H](CN2CCN(c3ccc(N4CC[C@@H](N)[C@H](F)C4)nc3)CC2)O1 [Example 175, 4-[(2S,6R)-2-[[4-[6-[(3R,4R)-4-amino-3-fluoro-1-piperidyl]-3-pyridyl]piperazin-1-yl]methyl]-6-methyl-morpholin-4-yl]-3-fluoro-pyrazolo[1,5-a]pyridine-7-carbonitrile]",12
9,"C[C@@H]1CN(c2ccc(C#N)n3ncc(F)c23)C[C@H](CN2CCN(c3ccc([C@@H]4CNCCO4)cc3)CC2)O1 [Example 177, 3-fluoro-4-[(2R,6S)-2-methyl-6-[[4-[4-[(2R)-morpholin-2-yl]phenyl]piperazin-1-yl]methyl]morpholin-4-yl]pyrazolo[1,5-a]pyridine-7-carbonitrile]",27
10,"COC1CNC[C@H]1Nc1cccc(N2CCN(C[C@H]3CN(c4ccc(C#N)c5ncccc45)C[C@@H](C)O3)CC2)n1 (stereo in doubt) [Example 39, 5-[(2S,6R)-2-[[4-[6-[[(3R,4R)-4-methoxypyrrolidin-3-yl]amino]-2-pyridyl]piperazin-1-yl]methyl]-6-methyl-morpholin-4-yl]quinoline-8-carbonitrile]",23
11,"C[C@@H]1CN(c2cc(=O)n(C)c3ncccc23)C[C@H](CN2CC(c3ccc(N4CC5(CNCCO5)C4)cc3)C2)O1 [Example 173, 1-methyl-4-[(2R,6S)-2-methyl-6-[[3-[4-(5-oxa-2,8-diazaspiro[3.5]nonan-2-yl)phenyl]azetidin-1-yl]methyl]morpholin-4-yl]-1,8-naphthyridin-2-one]",74
12,"C[C@@H]1CN(c2ccc(C#N)c3ncccc23)C[C@H](CN2CCN(c3ccc(N4CCNCC4)nc3)CC2)O1 [Example 13, 5-[(2R,6S)-2-methyl-6-[[4-(6-piperazin-1-yl-3-pyridyl)piperazin-1-yl]methyl]morpholin-4-yl]quinoline-8-carbonitrile]",5

# Continued, values first:
row,IC50 [nM],Compound
1,3,"Cc1cc(N2CCN(C[C@H]3CN(c4ccc(C#N)c5ncccc45)C[C@@H](C)O3)CC2)nc(N2C[C@@H](N)[C@@H](F)C2)n1 [Example 55, 5-[(2S,6R)-2-[[4-[2-[(3R,4S)-3-amino-4-fluoro-pyrrolidin-1-yl]-6-methyl-pyrimidin-4-yl]piperazin-1-yl]methyl]-6-methyl-morpholin-4-yl]quinoline-8-carbonitrile]"
2,3,"C[C@@H]1CN(c2ccc(C#N)c3ncccc23)C[C@H](CN2CCN(c3ncc(C#N)c(N4CCNCC4)n3)CC2)O1 [Example 51, 5-[(2S,6R)-2-[[4-(5-cyano-4-piperazin-1-yl-pyrimidin-2-yl)piperazin-1-yl]methyl]-6-methyl-morpholin-4-yl]quinoline-8-carbonitrile]"
3,11,"COC1CN(c2ccc(N3CCN(C[C@H]4CN(c5ccc(C#N)c6ncccc56)C[C@@H](C)O4)CC3)cn2)CC1N (stereo partly drawn) [Example 43, 5-[(2S,6R)-2-[[4-[6-(3-amino-4-methoxy-pyrrolidin-1-yl)-3-pyridyl]piperazin-1-yl]methyl]-6-methyl-morpholin-4-yl]quinoline-8-carbonitrile]"
4,2,"Cc1cc(N2CCN(C[C@H]3CN(c4ccc(C#N)c5nccnc45)C[C@@H](C)O3)CC2)nc(N2CCNCC2)n1 [Example 64, 8-[(2R,6S)-2-methyl-6-[[4-(6-methyl-2-piperazin-1-yl-pyrimidin-4-yl)piperazin-1-yl]methyl]morpholin-4-yl]quinoxaline-5-carbonitrile]"
5,30,"C[C@@H]1CN(c2ccc(C#N)n3ncc(F)c23)C[C@H](CN2CCN(c3ccc(N4CC5(CNCCO5)C4)nc3)CC2)O1 [Example 169, 3-fluoro-4-[(2R,6S)-2-methyl-6-[[4-[6-(5-oxa-2,8-diazaspiro[3.5]nonan-2-yl)-3-pyridyl]piperazin-1-yl]methyl]morpholin-4-yl]pyrazolo[1,5-a]pyridine-7-carbonitrile]"
6,33,"C[C@@H]1CN(c2ccc(C#N)c3ncccc23)C[C@H](CN2CCN(c3cccc(N[C@H]4CNC[C@@H]4F)n3)CC2)O1 [Example 35, 5-[(2S,6R)-2-[[4-[6-[[(3S,4S)-4-fluoropyrrolidin-3-yl]amino]-2-pyridyl]piperazin-1-yl]methyl]-6-methyl-morpholin-4-yl]quinoline-8-carbonitrile]"
7,51,"C[C@@H]1CN(c2cc(=O)n(C)c3ncccc23)C[C@H](CN2CC(c3ccc(N4C[C@H]5NCCO[C@@H]5C4)cc3)C2)O1 [Example 182, 4-[(2S,6R)-2-[[3-[4-[(4aR,7aR)-3,4,4a,5,7,7a-hexahydro-2H-pyrrolo[3,4-b][1,4]oxazin-6-yl]phenyl]azetidin-1-yl]methyl]-6-methyl-morpholin-4-yl]-1-methyl-1,8-naphthyridin-2-one]"
8,11,"C[C@@H]1CN(c2ccc(C#N)c3ncccc23)C[C@H](CN2CCN(c3cccc(N4CCC(N)CC4)n3)CC2)O1 [Example 36, 5-[(2S,6R)-2-[[4-[6-(4-amino-1-piperidyl)-2-pyridyl]piperazin-1-yl]methyl]-6-methyl-morpholin-4-yl]quinoline-8-carbonitrile]"
9,129,"C[C@@H]1CN(c2cc(=O)n(C)c3ncccc23)C[C@H](CN2CC(c3ccc(N4CCNCC4)cc3)C2)O1 [Example 171, 1-methyl-4-[(2R,6S)-2-methyl-6-[[3-(4-piperazin-1-ylphenyl)azetidin-1-yl]methyl]morpholin-4-yl]-1,8-naphthyridin-2-one]"
10,10,"C[C@@H]1CN(c2ccc(C#N)c3ncccc23)C[C@H](CN2CCN(c3cc(N4CCN(C)CC4)ncn3)CC2)O1 [Example 21, 5-[(2R,6S)-2-methyl-6-[[4-[6-(4-methylpiperazin-1-yl)pyrimidin-4-yl]piperazin-1-yl]methyl]morpholin-4-yl]quinoline-8-carbonitrile]"
